Laboratory results as given in PubChem BioAssay AID743132 (The Scripps Research Institute Molecular Screening Center, 2013).
Active and inactive are the calls of the source.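 The calls were made as follows: active = compounds blocking probe labeling of mouse brain LYPLA1 and LYPLA2 with IC50 at most 1000 nM; inactive = IC50 above 1000 nM.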

Experiments:
Test in all cases: LYPLA1/2 inhibition with ABHD6 and FAAH off-targets, late-stage follow-up, selectivity assay for LYPLA1/LYPLA2 inhibitor project, cell lysate, mouse brain membrane proteome, fluorescence gel (AID 743132)
[1] = biological target: Acyl-protein thioesterase 1 (Mus musculus) (UniProt P97823); settings: gel-based ABPP FP-Rh fluorescence, LYPLA1/2
[2] = biological target: Monoacylglycerol lipase ABHD6 (Mus musculus) (UniProt Q8R2Y0); settings: gel-based ABPP FP-Rh fluorescence
FAAH = settings: gel-based ABPP FP-Rh fluorescence

Sequence of Acyl-protein thioesterase 1 (Mus musculus) (P97823 whole entry, looked up): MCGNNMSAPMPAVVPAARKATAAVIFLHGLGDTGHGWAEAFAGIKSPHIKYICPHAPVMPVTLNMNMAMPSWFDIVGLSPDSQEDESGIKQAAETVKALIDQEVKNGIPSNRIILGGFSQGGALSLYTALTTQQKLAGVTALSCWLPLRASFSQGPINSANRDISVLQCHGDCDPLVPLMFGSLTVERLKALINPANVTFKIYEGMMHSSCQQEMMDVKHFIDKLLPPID
Sequence of Monoacylglycerol lipase ABHD6 (Mus musculus) (Q8R2Y0 whole entry, looked up): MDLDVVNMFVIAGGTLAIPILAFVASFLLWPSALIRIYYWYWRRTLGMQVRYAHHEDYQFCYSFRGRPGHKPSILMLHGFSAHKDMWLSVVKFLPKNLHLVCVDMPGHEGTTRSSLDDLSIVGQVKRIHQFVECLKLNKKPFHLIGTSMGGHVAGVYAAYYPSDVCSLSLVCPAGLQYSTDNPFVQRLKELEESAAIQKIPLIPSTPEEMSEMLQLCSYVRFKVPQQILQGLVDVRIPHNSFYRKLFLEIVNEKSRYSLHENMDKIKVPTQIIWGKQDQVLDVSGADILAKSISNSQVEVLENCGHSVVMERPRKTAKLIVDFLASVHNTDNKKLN

IC50 [1]: 154 nM
IC50 [2]: 3.15 nM
IC50 (FAAH): inactive
SMILES: O=C(ON1C(=O)C2CN(C(=O)N3CCOCC3)CCN2C1=O)N1CCC(CCc2ccc(Cl)cc2)CC1 (stereo not drawn)
